# Tests used:
# Experiment in all cases: Test C postemergence
# Assay type in all cases: in vivo
# Details in all cases: scale 0 to 100, 0 is no effect, 100 is complete control
# [1] = system: velvetleaf (Abutilon theophrasti)
# Outline: (§1)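 Plants are treated pre- or postemergence with test chemical in a solvent mixture plus surfactant and kept in a greenhouse for 13–15 days. Injury is then rated visually relative to untreated plants on a 0–100 scale.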
# wild oat (Avena fatua) = system: wild oat (Avena fatua)
# Outline: as §1
# [2] = system: winter wheat (Triticum aestivum)
# Outline: as §1
# corn (Zea mays) = system: corn (Zea mays)
# Outline: as §1
# kochia (Kochia scoparia) = system: kochia (Kochia scoparia)
# Outline: as §1
# [3] = system: lambsquarters (Chenopodium album)
# Outline: as §1
# [4] = system: waterhemp (common waterhemp, Amaranthus rudis)
# Outline: as §1
# [5] = system: blackgrass (Alopecurus myosuroides)
# Outline: as §1
# [6] = system: Italian ryegrass (Lolium multiflorum)
# Outline: as §1
# [7] = system: ragweed (common ragweed, Ambrosia elatior)
# Outline: as §1
# soybean (Glycine max) = system: soybean (Glycine max)
# Outline: as §1
# [8] = system: galium (catchweed bedstraw, Galium aparine)
# Outline: as §1
# [9] = system: large (Lg) crabgrass (Digitaria sanguinalis)
# Outline: as §1
# [10] = system: chickweed (common chickweed, Stellaria media)
# Outline: as §1
# [11] = system: morningglory (Ipomoea coccinea)
# Outline: as §1
# [12] = system: oilseed rape (Brassica napus)
# Outline: as §1
# [13] = system: barnyardgrass (Echinochloa crus-galli)
# Outline: as §1
# [14] = system: johnsongrass (Sorghum halepense)
# Outline: as §1
# [15] = system: pigweed (Amaranthus retroflexus)
# Outline: as §1
smiles,measurement,setting,value
O=c1cccc(Oc2ncc(Cl)cn2)n1-c1ccc(C(F)(F)F)cc1 [Compound 10],"Plant response rating, Velvetleaf",[1]; 16 g ai/ha,15
same,"Plant response rating, Velvetleaf",[1]; 31 g ai/ha,35
same,"Plant response rating, Velvetleaf",[1]; 62 g ai/ha,60
same,"Plant response rating, Velvetleaf",[1]; 125 g ai/ha,65
same,"Plant response rating, Oat, Wild",wild oat (Avena fatua); 16 g ai/ha,0
same,"Plant response rating, Oat, Wild",wild oat (Avena fatua); 31 g ai/ha,5
same,"Plant response rating, Oat, Wild",wild oat (Avena fatua); 62 g ai/ha,15
same,"Plant response rating, Oat, Wild",wild oat (Avena fatua); 125 g ai/ha,25
same,"Plant response rating, Wheat",[2]; 16 g ai/ha,0
same,"Plant response rating, Wheat",[2]; 31 g ai/ha,5
same,"Plant response rating, Wheat",[2]; 62 g ai/ha,10
same,"Plant response rating, Wheat",[2]; 125 g ai/ha,10
same,"Plant response rating, Corn",corn (Zea mays); 16 g ai/ha,20
same,"Plant response rating, Corn",corn (Zea mays); 31 g ai/ha,15
same,"Plant response rating, Corn",corn (Zea mays); 62 g ai/ha,25
same,"Plant response rating, Corn",corn (Zea mays); 125 g ai/ha,25
same,"Plant response rating, Kochia",kochia (Kochia scoparia); 16 g ai/ha,85
same,"Plant response rating, Kochia",kochia (Kochia scoparia); 31 g ai/ha,90
same,"Plant response rating, Kochia",kochia (Kochia scoparia); 62 g ai/ha,90
same,"Plant response rating, Kochia",kochia (Kochia scoparia); 125 g ai/ha,95
same,"Plant response rating, Lambsquarters",[3]; 16 g ai/ha,65
same,"Plant response rating, Lambsquarters",[3]; 31 g ai/ha,75
same,"Plant response rating, Lambsquarters",[3]; 62 g ai/ha,75
same,"Plant response rating, Lambsquarters",[3]; 125 g ai/ha,90
same,"Plant response rating, Waterhemp",[4]; 16 g ai/ha,75
same,"Plant response rating, Waterhemp",[4]; 31 g ai/ha,80
same,"Plant response rating, Waterhemp",[4]; 62 g ai/ha,98
same,"Plant response rating, Waterhemp",[4]; 125 g ai/ha,98
same,"Plant response rating, Blackgrass",[5]; 16 g ai/ha,10
same,"Plant response rating, Blackgrass",[5]; 31 g ai/ha,10
same,"Plant response rating, Blackgrass",[5]; 62 g ai/ha,30
same,"Plant response rating, Blackgrass",[5]; 125 g ai/ha,25
same,"Plant response rating, Ryegrass, Italian",[6]; 16 g ai/ha,5
same,"Plant response rating, Ryegrass, Italian",[6]; 31 g ai/ha,5
same,"Plant response rating, Ryegrass, Italian",[6]; 62 g ai/ha,10
same,"Plant response rating, Ryegrass, Italian",[6]; 125 g ai/ha,20
same,"Plant response rating, Ragweed",[7]; 16 g ai/ha,25
same,"Plant response rating, Ragweed",[7]; 31 g ai/ha,25
same,"Plant response rating, Ragweed",[7]; 62 g ai/ha,60
same,"Plant response rating, Ragweed",[7]; 125 g ai/ha,65
same,"Plant response rating, Soybean",soybean (Glycine max); 16 g ai/ha,40
same,"Plant response rating, Soybean",soybean (Glycine max); 31 g ai/ha,40
same,"Plant response rating, Soybean",soybean (Glycine max); 62 g ai/ha,65
same,"Plant response rating, Soybean",soybean (Glycine max); 125 g ai/ha,55
same,"Plant response rating, Galium",[8]; 16 g ai/ha,45
same,"Plant response rating, Galium",[8]; 31 g ai/ha,50
same,"Plant response rating, Galium",[8]; 62 g ai/ha,75
same,"Plant response rating, Galium",[8]; 125 g ai/ha,80
same,"Plant response rating, Crabgrass, Large",[9]; 16 g ai/ha,25
same,"Plant response rating, Crabgrass, Large",[9]; 31 g ai/ha,35
same,"Plant response rating, Crabgrass, Large",[9]; 62 g ai/ha,60
same,"Plant response rating, Crabgrass, Large",[9]; 125 g ai/ha,80
same,"Plant response rating, Chickweed",[10]; 16 g ai/ha,70
same,"Plant response rating, Chickweed",[10]; 31 g ai/ha,30
same,"Plant response rating, Chickweed",[10]; 62 g ai/ha,70
same,"Plant response rating, Chickweed",[10]; 125 g ai/ha,80
same,"Plant response rating, Morningglory",[11]; 16 g ai/ha,50
same,"Plant response rating, Morningglory",[11]; 31 g ai/ha,55
same,"Plant response rating, Morningglory",[11]; 62 g ai/ha,70
same,"Plant response rating, Morningglory",[11]; 125 g ai/ha,75
same,"Plant response rating, Oilseed Rape",[12]; 16 g ai/ha,5
same,"Plant response rating, Oilseed Rape",[12]; 31 g ai/ha,25
same,"Plant response rating, Oilseed Rape",[12]; 62 g ai/ha,80
same,"Plant response rating, Oilseed Rape",[12]; 125 g ai/ha,80
same,"Plant response rating, Barnyardgrass",[13]; 16 g ai/ha,5
same,"Plant response rating, Barnyardgrass",[13]; 31 g ai/ha,10
same,"Plant response rating, Barnyardgrass",[13]; 62 g ai/ha,25
same,"Plant response rating, Barnyardgrass",[13]; 125 g ai/ha,65
same,"Plant response rating, Johnsongrass",[14]; 16 g ai/ha,5
same,"Plant response rating, Johnsongrass",[14]; 31 g ai/ha,10
same,"Plant response rating, Johnsongrass",[14]; 62 g ai/ha,10
same,"Plant response rating, Johnsongrass",[14]; 125 g ai/ha,25
same,"Plant response rating, Pigweed",[15]; 16 g ai/ha,70
same,"Plant response rating, Pigweed",[15]; 31 g ai/ha,90
same,"Plant response rating, Pigweed",[15]; 62 g ai/ha,80
same,"Plant response rating, Pigweed",[15]; 125 g ai/ha,90
